Source: patent US11999727B2 (Tango Therapeutics, Inc., priority 2020, dated 2024)

What was measured:
[1] = molecular target: T1, PRMT5 (Homo sapiens, UniProt O14744); assay: PRMT5 biochemical IC50 assay with MTA as cofactor; conditions: PRMT5, MTA as cofactor; read-out: MTA IC50
T1 construct: purchased Viva (custom protein)

[2] = test system: HAP1 MTAP-intact cell line; assay: SDMA in-cell western assay, HAP1 MTAP-intact; assay type: cell-based; conditions: Homo sapiens, HAP1, SDMA in-cell western, HAP1 MTAP-intact; read-out: MTAP HAP1 intact IC50
Procedure, shortened: (§1)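 Compounds were tested in HAP1 cells differing only in MTAP status (endogenous expression versus null). Cellular SDMA levels were then measured by in-cell western, giving an IC50 in each background.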

[3] = test system: HAP1 MTAP-deleted cell line; assay: Viability assay, MTAP-deleted cell line; assay type: cell-based; conditions: Homo sapiens, read-out: HAP1 MTAP deleted viability
Source text: Table 1 additionally indicates IC50 values in a viability assay for the MTAP-deleted cell line (column 10), indicating the effect of treatment with compound on cell survival.

[4] = molecular target: T1, PRMT5; assay: PRMT5 biochemical IC50 assay with no cofactor; conditions: PRMT5, no cofactor
Source text: Table 1 indicates IC50 values (μM) against PRMT5 for exemplary compounds in the presence of SAM as cofactor, with no cofactor, and with MTA as cofactor, respectively (columns 4-6). […] Ki values can be calculated from the IC50 values as described in the Examples section. As detailed in the Examples section, for the assay performed in the presence of SAM, IC50=Ki×1.5 (Ki=IC50/1.5).

[5] = test system: HAP1 MTAP-deleted cell line; assay: SDMA in-cell western assay, HAP1 MTAP-deleted; assay type: cell-based; conditions: for IC50: Homo sapiens, HAP1, SDMA in-cell western, HAP1 MTAP-deleted; for MTAP intact/deleted ratio: SDMA in-cell western
Procedure, shortened: as §1

[6] = molecular target: T1, PRMT5; assay: PRMT5 biochemical IC50 assay with SAM as cofactor; conditions: PRMT5, SAM as cofactor; read-out: SAM IC50
[7] = HAP1, viability assay, MTAP-deleted cell line
[8] = read-out: No Cofactor/ rel IC50
[9] = read-out: HAP 1 MTAP deleted IC50
[10] = IC50 ratio HAP1 MTAP-intact / HAP1 MTAP-deleted
[11] = read-out: HAP1 MTAP deleted IC50
[12] = IC50 ratio HAP1 MTAP-intact vs HAP1 MTAP-deleted

T1 sequence (O14744 whole entry): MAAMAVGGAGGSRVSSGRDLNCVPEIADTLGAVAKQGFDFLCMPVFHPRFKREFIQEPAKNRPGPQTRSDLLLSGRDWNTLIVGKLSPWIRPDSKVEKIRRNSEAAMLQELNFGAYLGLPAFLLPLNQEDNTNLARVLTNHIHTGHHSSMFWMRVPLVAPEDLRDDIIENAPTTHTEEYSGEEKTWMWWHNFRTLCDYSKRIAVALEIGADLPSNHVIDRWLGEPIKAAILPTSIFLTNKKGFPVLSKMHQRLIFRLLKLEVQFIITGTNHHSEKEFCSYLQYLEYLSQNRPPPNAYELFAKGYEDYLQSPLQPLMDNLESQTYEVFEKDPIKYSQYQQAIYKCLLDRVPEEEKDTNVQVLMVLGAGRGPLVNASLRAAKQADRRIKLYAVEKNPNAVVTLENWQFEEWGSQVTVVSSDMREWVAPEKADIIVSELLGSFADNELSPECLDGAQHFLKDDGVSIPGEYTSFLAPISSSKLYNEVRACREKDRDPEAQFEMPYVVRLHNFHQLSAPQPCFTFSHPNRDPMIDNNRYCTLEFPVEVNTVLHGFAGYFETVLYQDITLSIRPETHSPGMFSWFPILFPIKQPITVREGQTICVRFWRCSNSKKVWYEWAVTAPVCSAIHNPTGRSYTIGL
T1 sequence (Q9BQA1 whole entry partner): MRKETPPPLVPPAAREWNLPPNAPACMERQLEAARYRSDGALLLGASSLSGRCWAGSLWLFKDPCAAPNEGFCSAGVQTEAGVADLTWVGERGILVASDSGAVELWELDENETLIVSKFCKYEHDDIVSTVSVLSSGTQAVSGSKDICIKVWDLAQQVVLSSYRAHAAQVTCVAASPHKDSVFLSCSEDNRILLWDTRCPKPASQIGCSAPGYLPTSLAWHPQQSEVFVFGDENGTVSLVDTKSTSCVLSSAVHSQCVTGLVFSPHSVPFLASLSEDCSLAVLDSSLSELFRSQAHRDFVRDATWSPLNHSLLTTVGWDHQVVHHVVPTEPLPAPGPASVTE

Compound | IC50 [1] [nM] | IC50 [2] [nM] | IC50 [3, 7] [nM] | IC50 [4, 8] [nM] | IC50 [5, 9] [nM] | MTAP intact/deleted ratio [5, 10] | IC50 [6] [nM] | IC50 ([4]; read-out: No Cofactor/rel IC50) [nM] | IC50 [5, 11] [nM] | IC50 ([3]; HAP1, viability IC50, MTAP-deleted cell line) [nM] | MTAP intact/deleted ratio [5, 12]
Cc1cc([C@@H]2CC[C@@H](C)CN2C(=O)C(=O)Nc2cncc(C(N)=O)c2)ccc1OC1CCOC1 (mixture of isomers) [Compound 171, rac-5-{2-[(2R,5S)-5-Methyl-2-[3-methyl-4-(oxolan-3-yloxy)phenyl]piperidin-1-yl]-2-oxoacetamido}pyridine-3-carboxamide] | < 50 | > 1000 | 1000 to 10000 | 50 to 500 | < 100 | A (an IC50 ratio greater than or equal to 10 fold) | 50 to 500 | – | – | – | –
CCc1cc(NC(=O)C(=O)N2C[C@@H](C)CC[C@@H]2c2ccc3cnccc3c2)cnc1N (single isomer, unassigned) [Compound 929] | > 500 | > 1000 | 1000 to 10000 | – | 100 to 1000 | A (an IC50 ratio greater than or equal to 10 fold) | > 500 | > 500 | – | – | –
Cc1cncc(NC(=O)C(=O)N2CCCCC2c2cccc(N(C)C)c2)c1 (stereo not drawn) [Compound 15, 2-(2-(3-(dimethylamino)phenyl)piperidin-1-yl)-N-(5-methylpyridin-3-yl)-2-oxoacetamide] | 50 to 500 | > 1000 | > 10000 | > 500 | > 1000 | C (an IC50 ratio of less than 3 fold) | > 500 | – | – | – | –
C[C@@H]1CC[C@@H](c2ccc(N)nc2)N(C(=O)C(=O)Nc2cncc(C(N)=O)c2)C1 (racemic) [Compound 224, rac-5-{2-[(2R,5S)-2-(6-Aminopyridin-3-yl)-5-methylpiperidin-1-yl]-2-oxoacetamido}pyridine-3-carboxamide] | < 50 | > 1000 | 1000 to 10000 | – | – | A (an IC50 ratio greater than or equal to 10 fold) | 50 to 500 | 50 to 500 | < 100 | – | –
C[C@@H]1CC[C@@H](c2cc3cn[nH]c3cc2F)N(C(=O)C(=O)Nc2cncc(C(N)=O)c2)C1 (single isomer, unassigned) [Compound 571] | > 500 | > 1000 | – | – | > 1000 | C (an IC50 ratio of less than 3 fold) | > 500 | > 500 | – | > 10000 | –
COCc1nc2cc([C@H]3CC[C@H](C)CN3C(=O)C(=O)Nc3cnc(N)c(C)c3)ccc2s1 (single isomer, unassigned) [Compound 1211] | < 50 | < 100 | < 1000 | – | – | – | 50 to 500 | 50 to 500 | < 100 | – | A (an IC50 ratio greater than or equal to 10 fold)
Cc1cc(NC(=O)C(=O)N2C[C@@H](C)CC[C@@H]2c2ccc3sc([C@H]4CCN(C)C(C)(C)C4)nc3c2)cnc1C (racemic) [Compound 1113, N-(5,6-dimethyl-3-pyridyl)-2-oxo-2-[(2R,5S)-5-methyl-2-[2-[(4S)-1,2,2-trimethyl-4-piperidyl]-1,3-benzothiazol-5-yl]-1-piperidyl]acetamide] | < 50 | 100 to 1000 | < 1000 | – | – | – | < 50 | < 50 | < 100 | – | A (an IC50 ratio greater than or equal to 10 fold)
Cc1ccc([C@@H]2CC[C@@H](C)CN2C(=O)C(=O)Nc2cnc(N)c(C)c2)nc1 (racemic) [Compound 1005, N-(6-Amino-5-methyl-3-pyridyl)-2-[(2R,5S)-5-methyl-2-(5-methyl-2-pyridyl)-1-piperidyl]-2-oxo-acetamide] | 50 to 500 | > 1000 | 1000 to 10000 | – | 100 to 1000 | A (an IC50 ratio greater than or equal to 10 fold) | > 500 | 50 to 500 | – | – | –
Cc1cc(NC(=O)C(=O)N2C[C@H](C)CC[C@H]2c2ccc(N)cc2)cnc1N (single isomer, unassigned) [Compound 461] | < 50 | 100 to 1000 | < 1000 | – | – | B (an IC50 ratio greater than or equal to 3 fold but lower than 10 fold) | 50 to 500 | < 50 | < 100 | – | –
